For the assay, the target named is T1, PTK2 (FAK) (Homo sapiens, UniProt Q05397).
T1 construct: purchased Thermo Fisher Scientific (Life Technologies) SelectScreen
As to the kind of experiment: SelectScreen Z'LYTE. The assay is classed as biochemical. Summed up:
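SelectScreen broad panel; activity (Z'LYTE, Adapta) plus binding formats. ATP: Km app for CSF1R Z'LYTE; 10 for CAMK1 Adapta. Readout = % per kinase.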

T1 sequence (Q05397 whole entry): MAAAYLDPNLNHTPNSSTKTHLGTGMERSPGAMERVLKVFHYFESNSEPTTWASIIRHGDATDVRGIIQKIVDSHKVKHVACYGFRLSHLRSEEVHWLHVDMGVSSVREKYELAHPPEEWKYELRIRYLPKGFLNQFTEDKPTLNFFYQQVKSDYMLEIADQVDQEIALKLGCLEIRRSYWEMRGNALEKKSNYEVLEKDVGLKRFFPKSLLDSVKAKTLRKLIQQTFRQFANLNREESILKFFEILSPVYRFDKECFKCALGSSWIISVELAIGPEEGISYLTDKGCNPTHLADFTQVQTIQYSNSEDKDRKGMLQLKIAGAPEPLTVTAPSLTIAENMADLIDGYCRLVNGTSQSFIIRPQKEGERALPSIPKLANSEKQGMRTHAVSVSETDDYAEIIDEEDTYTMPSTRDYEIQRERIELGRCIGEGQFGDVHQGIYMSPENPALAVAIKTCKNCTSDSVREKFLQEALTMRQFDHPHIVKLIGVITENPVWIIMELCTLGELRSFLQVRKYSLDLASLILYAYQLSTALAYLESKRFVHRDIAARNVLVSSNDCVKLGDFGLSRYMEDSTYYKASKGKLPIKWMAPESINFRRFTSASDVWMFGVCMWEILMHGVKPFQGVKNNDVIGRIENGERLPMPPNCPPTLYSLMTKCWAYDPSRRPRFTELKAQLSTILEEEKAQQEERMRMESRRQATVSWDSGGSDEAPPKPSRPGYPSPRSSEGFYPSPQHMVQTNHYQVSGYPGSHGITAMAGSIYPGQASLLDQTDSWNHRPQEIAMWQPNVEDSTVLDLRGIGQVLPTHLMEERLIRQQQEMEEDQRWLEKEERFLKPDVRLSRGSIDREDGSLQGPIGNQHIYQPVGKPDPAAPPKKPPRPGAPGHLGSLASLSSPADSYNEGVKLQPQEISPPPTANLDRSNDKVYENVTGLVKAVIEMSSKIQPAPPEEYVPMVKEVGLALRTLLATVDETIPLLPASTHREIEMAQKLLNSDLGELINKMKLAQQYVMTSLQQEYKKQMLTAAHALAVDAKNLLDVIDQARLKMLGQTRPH

On to `CN(C(=O)CN1CCOCC1)c1ccc2sc3c(-c4cccc5c(=O)cc(N6CC7CCC(C6)O7)oc45)cccc3c2c1` [NU5455], for which the inhibition at 1 µM worked out at 5.1%.

The values above are taken from PMC6934184, “Selective DNA-PKcs inhibition extends the therapeutic index of localized radiotherapy and chemotherapy” (The Journal of Clinical Investigation, 2019).
